Experiment [1] deals with MG-63 cells. The experiment is described as follows: Picrosirius red staining of collagen fibers in MG-63 cells. The class given is cell-based, human. The settings on record: 7 days, osteogenic differentiation medium plus peptide. On the procedure: (§1) The cultivation of MG-63 was performed in α-MEM growth medium (Sartorius). Osteogenic differentiation was performed by plating 20,000 cells/well into a sterile 24-well plate. Cells were left to adhere for 1 day and then switched to the osteogenic medium consisting of a minimum essential medium alpha (α-MEM) supplemented with 10% heat-inactivated FBS, 2 mM L-glutamine, 100 U/mL penicillin, 100 μg/mL streptomycin, 50 μM ascorbate-2-phosphate, and 10 mM β-glycerophosphate. Medium was changed every 2-3 days together with peptide supplementation. Seven to twenty-eight days after induction of differentiation, the production of extracellular calcified mineral matrix was visualized by Alizarin Red staining (Sigma) and Picrosirius Red (Scytek).
To visualize the extent of ECM formation, Picrosirius red dye was used to stain Collagen-I and Collagen-III. Treated cells were fixed with 4% PFA, washed with PBS and dried at 37° C. or at room temperature (RT) for overnight incubation. Then, the cells were stained with 400 μL of Sirius Red dye (0.1% in saturated picric acid) for 1 hour with mild shaking. The stained cell layers were then extensively washed with 0.01 N HCl to remove all non-bounded dye. After rinsing, photographs were taken under confocal microscope using polarized light.
Evaluation of Collagen fibers in MG-63 cells upon Def16-EPAS1 treatment—To evaluate the variation in Collagen fiber levels between normal MG-63 cells and MG-63 cells treated with the Def16-EPAS1 peptide, cells were supplemented to a 7-day incubation period with osteogenic differentiation medium (which includes 50 μg/mL ascorbic acid and 10 mM β-glycerophosphate), along with the addition of Def16-EPAS1 peptide. Collagen fibers were highlighted/stained by Picro-Sirius Red staining according to the manufacturer's instructions (FIG. 12). The PSR staining allows to clearly distinguish between Collagen-I and III fibers in cell culture. In the evaluation of polarizing colors of collagens fibers, Collagen-I and III were polarized with 488 nm and 647 nm wavelength, respectively, and visualized with the confocal microscope.

Experiment [2] deals with MG-63 cells. The experiment is described as follows: Alizarin Red S staining of mineralization in MG-63 cells. The class given is cell-based, human. The protocol: as §1
To visualize calcium deposition upon osteogenic differentiation, an Alizarin-red-S (Sigma) stock solution of 40 mM was used. Cells were washed three times with PBS and fixed in 1 mL of 4% PFA for 20 minutes at room temperature (RT). After fixation, cells were rinsed with double distilled water (DDW) and stained for 10 minutes in 1 mL Alizarin-red-S stock solution under continuous rotation. To diminish unspecific staining, cells were washed extensively three times with PBS. Stained samples were stored at 4° C. covered with PBS. […]

For a further experiment, the system named is Bovine Dermal Fibroblast. The experiment is described as follows: Collagen-I immunofluorescence in bovine dermal fibroblasts. The class given is cell-based. The settings on record: 48 hours. On the procedure:
For microscopy images, cells were cultured in a 24-well plate and incubated with medium supplemented with the indicated concentrations of the treating entity (e.g., peptides or DFO) at 37° C. under 5% CO2. Cells were then washed additional three times with cold phosphate-buffered saline (PBS), following a 20 minute fixation in a 4% paraformaldehyde (PFA) in PBS and extensively washed three times with PBS to remove the PFA, followed by a 20 minute wash with blocking and penetration solution (PBS with 0.1% Triton X-100 and 2% BSA). Fixed cells were incubated with antibodies for 1 hour at 25° C., washed, and developed together with fluorescence-tagged secondary antibodies (Alexa 488 and 647, Abcam). Cell nuclei were stained with 1 mg/mL 4′,6-diamidino-2-phenylindole (DAPI Staining Solution ab228549, Abcam). Images were taken using a ZEISS LSM 900 in confocal mode, using Zen 3.1. Fluorescence readouts were obtained at ex/em of 358/461, 495/519 nm, and 652/668 nm for blue, green, and red, respectively.
Effect of Def16-EPAS1 on Collagen accumulation in Bovine Dermal Fibroblast—To test HIF mimicking peptide and its effect on Collagen accumulation in additional mammalian cells, the present inventors have examined the effect of the Def16-EPAS1 peptide on Bovine Dermal Fibroblast. […]

The next experiment has as its system ischemic anastomoses. As to conditions: cited from earlier work.
Another experiment deals with mice. As to conditions: after dextran sulfate sodium-induced intestinal fibrosis; cited from earlier work.

The values that follow come from patent US20250171821A1, “HIF-1 ACTIVATORS AND USES THEREOF” (Ramot at Tel-Aviv University Ltd., priority 2022, published 2025).

“Also recorded” adds a separate entry of the source.

Take “Def16-EPAS1: GRCRGFRRRCFCTTHCELDLETLAPYIPMDGEDFQL (SEQ ID NO: 3): Def16 cell penetrating sequence fused to the EPAS1 peptide (Def16-EPAS1; MOD_RES 1 Can be FITC-labeled; MOD_RES 3 Can be FITC-labeled; MOD_RES 10 Can be FITC-labeled; MOD_RES 12 Can be FITC-labeled; MOD_RES 16..17 Can be FITC-labeled; MOD_RES 19 Can be FITC-labeled; MOD_RES 21 Can be FITC-labeled; MOD_RES 30 Can be FITC-labeled; MOD_RES 32..33 Can be FITC-labeled; MOD_RES 36 Can be FITC-labeled)”: in the experiment on MG-63 cells [1], the Collagen-I fibers result is recorded as “over-production” and the Collagen-III fibers result is “over-production”. Also, in the experiment with MG-63 cells [1] (listed as DEF16-EPAS1), the Collagen-I fibers entry is “enhanced levels” and the Collagen-III fibers result is reported as “enhanced levels”. Moreover, the “deposition of calcium (mineralized nodules)” value in the experiment on MG-63 cells [2] (5 μM or 20 μM peptide, 7 days, osteogenic differentiation medium) is “strong induction of deposition of calcium; also recorded: Typical mineralized nodules were observed”. Also, in the experiment on MG-63 cells [2] (10 μM peptide, 7, 14, 21 and 28 days, differentiation medium), the “mineralizing matrix formation (Alizarin Red S and Picrosirius Red)” value was “form a mineralizing matrix”. For the same compound, in the experiment with Bovine Dermal Fibroblast (higher peptide concentrations), the Collagen fibril morphology entry is given as “thick fibril bundles of Collagen were observed”. Moreover, in the experiment with Bovine Dermal Fibroblast (peptide concentration above 10 μM), the “Collagen-I levels compared to baseline of nontreated cells” value is on record as “more than 2 fold”.

Turning to `COC(=O)CNC(=O)C(=O)OC` [DMOG], the levels of collagen entry in the experiment on ischemic anastomoses is on record as “increased levels of collagen”. In the experiment with mice, the collagen deposition result is given as “significant decrease in collagen deposition”.
